Assay results as given in US10898537B2, “Transdermal formulations for delivery of capsaicinoids” (DELIVRA INC., priority 2015, dated 2021).

Experiment: PAMPA assay, flux of capsaicin and osthole from buffer solutions with penetration enhancers (Experiments 1 and 2)
Format: in vitro ADME
Protocol: A. Preparation of Standards:
1 mg/mL stock solutions of polygodial, tetrahydropiperine (Cosmoperine™), osthole, dimethylisosorbide (DMI), Tazmanian Mountain Pepper (TMP), capsaicin and warfarin were prepared in methanol and stored at −20 ° C.
Prisma buffer preparation: Added 1.25 mL of Prisma™ HT buffer to 48.75 mL distilled water. Adjusted to pH 7.0 by adding 0.5 M NaOH dropwise.
50 μg/mL solutions of capsaicin, warfarin and osthole were prepared by adding 50 μL of the 1 mg/mL solutions to 950 μL of MeOH:H2O (50:50).
Donor Well Solutions: Experiment 1—Polygodial, Osthole and Capsaicin with DMI and THP
Preparation of Capsaicin Solutions:
5 μg/mL solution of capsaicin was prepared in Prisma™ buffer solution by adding 5 μL of 1 mg/mL solution of capsaicin to 0.995 mL Prisma™ buffer.
5 μg/mL of capsaicin+5 μg/mL solution of DMI was prepared in Prisma™ buffer solution by adding 5 μL of 1 mg/mL of DMI and 5 μL of 1 mg/mL of capsaicin solution to 0.990 mL Prisma™ buffer.
5 μg/mL of capsaicin+5 μg/mL solution of THP was prepared in Prisma™ buffer solution by adding 5 μL of 1 mg/mL of THP and 5 μL of 1 mg/mL of capsaicin solution to 0.990 mL Prisma™ buffer.
Preparation of Osthole Solutions:
5 μg/mL solution of osthole was prepared in Prisma™ buffer solution by adding 5 μL of 1 mg/mL solution of osthole to 0.995 mL Prisma™ buffer.
5 μg/mL of osthole+5 μg/mL solution of DMI was prepared in Prisma™ buffer solution by adding 5 μL of 1 mg/mL of DMI and 5 μL of 1 mg/mL of osthole solution to 0.990 mL Prisma™ buffer.
5 μg/mL of osthole+5 μg/mL solution of THP was prepared in Prisma™ buffer solution by adding 5 μL of 1 mg/mL of THP and 5 μL of 1 mg/mL of osthole solution to 0.990 mL Prisma™ buffer.
Donor Well Solutions: Experiment 2—Osthole and Capsaicin with Polygodial, TMP and THP
5 μg/mL solution of capsaicin was prepared in Prisma™ buffer solution by adding 5 μL of 1 mg/mL solution of capsaicin to 0.995 mL Prisma™ buffer. (Solution A)
5 μg/mL of capsaicin+5 μg/mL solution of polygodial was prepared in Prisma™ buffer solution by adding 5 μL of 1 mg/mL of polygodial and 5 μL of 1 mg/mL of capsaicin solution to 0.990 mL Prisma™ buffer. (Solution B)
5 μg/mL of capsaicin+5 μg/mL solution of TMP was prepared in Prisma™ buffer solution by adding 5 μL of 1 mg/mL of TMP and 5 μL of 1 mg/mL of capsaicin solution to 0.990 mL Prisma™ buffer. (Solution C)
5 μg/mL of capsaicin+5 μg/mL TMP+5 μg/mL solution of tetrahydropiperine was prepared in Prisma™ buffer solution by adding 5 μL of 1 mg/mL of TMP and 5 μL of 1 mg/mL tetrahydropiperine and 5 μL of 1 mg/mL of capsaicin solution to 0.985 mL Prisma™ buffer. (Solution D)
5 μg/mL of capsaicin+5 μg/mL solution of tetrahydropiperine was prepared in Prisma™ buffer solution by adding 5 μL of 1 mg/mL of tetrahydropiperine and 5 μL of 1 mg/mL of capsaicin solution to 0.990 mL Prisma™ buffer. (Solution E)
5 μg/mL solution of osthole was prepared in Prisma™ buffer solution by adding 5 μL of 1 mg/mL solution of osthole to 0.995 mL Prisma™ buffer. (Solution F)
5 μg/mL of osthole+5 μg/mL solution of polygodial was prepared in Prisma™ buffer solution by adding 5 μL of 1 mg/mL of polygodial and 5 μL of 1 mg/mL of osthole solution to 0.990 mL Prisma™ buffer. (Solution G)
5 μg/mL of osthole+5 μg/mL solution of TMP was prepared in Prisma™ buffer solution by adding 5 μL of 1 mg/mL of TMP and 5 μL of 1 mg/mL of osthole solution to 0.990 mL Prisma™ buffer. (Solution H)
5 μg/mL of osthole+5 μg/mL TMP+5 μg/mL solution of tetrahydropiperine was prepared in Prisma™ buffer solution by adding 5 μL of 1 mg/mL of TMP and 5 μL of 1 mg/mL tetrahydropiperine and 5 μL of 1 mg/mL of osthole solution to 0.985 mL Prisma™ buffer. (Solution I)
5 μg/mL of osthole+5 μg/mL solution of tetrahydropiperine was prepared in Prisma™ buffer solution by adding 5 μL of 1 mg/mL of tetrahydropiperine and 5 μL of 1 mg/mL of osthole solution to 0.990 mL Prisma™ buffer. (Solution J) […]

## CO[C@H]1CO[C@H]2[C@@H]1OC[C@H]2OC [DMI, Dimethyl Isosorbide]
Experiment 1, vs capsaicin alone over five hours
  effect of penetration enhancer on capsaicin flux in the PAMPA system: neither penetration enhancer demonstrated a statistically significant increase in capsaicin flux
Experiment 1, vs osthole alone over five hours
  effect of penetration enhancer on osthole flux in the PAMPA system: No observable enhancement

## COc1ccc2ccc(=O)oc2c1CC=C(C)C [osthole]
alone, donor 5 μg/mL, 2.0 hours
  concentration quantified in the acceptor well: 4 ng/mL
alone, donor 5 μg/mL, 2.5 hours
  concentration quantified in the acceptor well: 89 ng/mL
alone, donor 5 μg/mL, 5.0 hours
  concentration quantified in the acceptor well: 445 ng/mL
With equimass DMI (5 μg/mL), 2.0 hours
  concentration quantified in the acceptor well: 95 ng/mL
With equimass DMI (5 μg/mL), 2.5 hours
  concentration quantified in the acceptor well: 232 ng/mL
With equimass DMI (5 μg/mL), 5.0 hours
  concentration quantified in the acceptor well: 510 ng/mL
With equimass THP (5 μg/mL), 2.0 hours
  concentration quantified in the acceptor well: 261 ng/mL
With equimass THP (5 μg/mL), 2.5 hours
  concentration quantified in the acceptor well: 324 ng/mL
With equimass THP (5 μg/mL), 5.0 hours
  concentration quantified in the acceptor well: 549 ng/mL

## CC1(C)CCC[C@]2(C)[C@@H](C=O)C(C=O)=CC[C@@H]12 [polygodial]
PAMPA
  effect of natural penetration enhancer on capsaicin flux in the PAMPA system: appear to decreased the flux rate of capsaicin
